{
  "source": "patent US20210401786A1",
  "about": "“COMPOSITION FOR TREATING BURN WOUNDS” (priority 2020, published 2021)",
  "assay_type_in_all_cases": "in vivo, Guangxi Bama mini-pigs",
  "key": {"CK10": {"tested_on": "CK10", "experiment": "Immunohistochemistry of healed epidermis, IOD of CK10", "settings": "4 weeks after treatment, Image-Pro Plus 6.0", "experimental": "(§1) An immunohistochemistry analysis was performed to identify the localization and expression of specific molecular markers of keratinocytes in the healed epidermis.\n(§2) It can be seen from FIG. 6 that the nuclear transcription factor P63 was mainly expressed in undifferentiated proliferating keratinocytes located in the basal layer. CK 10 was mainly expressed in mature differentiating keratinocytes. The expression of P63 and CK10 protein indicate the proliferation and differentiation of keratinocytes during epithelialization and repair of wounds. The higher the expression of P63 and CK10 protein, the faster the cells proliferate and differentiate. In the late stage of wound repair, fibroblasts secrete more collagen fibers, and a large number of collagen fibers increase and are densely arranged. Masson staining is used to mark the subcutaneous collagen fibers as green. The structure of each layer of the epidermis treated with the present invention is clear. The proliferative layer and the differentiated layer can be clearly identified by immunohistochemical staining.\n(§3) Integrated optical density (IOD) values analysis of immunohistological images of P63 and CK10 are performed by Image-Pro Plus 6.0, as shown in Table 3 and FIGS. 8 to 9. […]"}, "P63": {"tested_on": "P63", "experiment": "Immunohistochemistry of healed epidermis, IOD of P63", "settings": "4 weeks after treatment, Image-Pro Plus 6.0", "experimental": "as §1, §2, §3"}, "[1]": {"tested_on": "porcine full-thickness burn wounds", "experiment": "Porcine full-thickness burn wound healing experiment", "settings": "for Wound healing time (days, X +/− S): 9 wounds per group", "experimental": "(2) Experimental animals: Three female Guangxi Bama mini-pigs are 19-21 kilograms (provided by Tianjin Bainong Laboratory Animal Breeding Technology Co., Ltd., Tianjin, China). Animals were housed in isolated steel cages (80×100×110 cm^3) at 25° C. under natural lighting in the Experimental Animal Center, after thoroughly disinfecting the breeding room and the cages for animals with disinfectants and ultraviolet lamps. Non-experimental personnel are strictly prohibited from entering the breeding room during the experiment Animals were fed with standard pig chow twice daily, 150 grains at a time, and had access to water ad libitum (water is of the clean standard for tap water). The breeding room and cage are disinfected regularly on a weekly basis, and the feed tank and the water sink are cleaned before each feeding.\n(3) Creation of porcine full-thickness burn wound models: The miniature pig was raised conventionally, fasted for 12 h, laid on one side, and injected with sumianxin injection into the hip muscle. Once anesthetized, the miniature pig was transferred to an operating table and a ventilation tube was placed in the mouth. After disinfection of the back of the ear, an indwelling needle of the auricle vein was placed for adequate analgesia and sedation. The surgical area on the back was prepared, disinfected with iodophor, on which a sterile sheet was spread, and an expected site of a burn was marked. The aluminum block mold (the net weight of the aluminum block mold is 265 g, and the load is 1 kg) was heated to 96° C. for 10 minutes, and was in close contact with the skin for 45 seconds. Each pig had 9 wounds. The operation on the back of the 3 mini pigs is consistent. After the operation, the wounds were disinfected with iodophor, on which cotton pads dressing and elastic sleeves were applied. Antibiotics were injected intravenously to prevent infection, and 2 ml of the awakening agent Lu Xingning was injected intravenously. The pigs were then transferred to the cages. One hour after waking up, the pigs were fed and given oral rehydration saline. Activities and signs of the pigs were closely observed. After the burn injury, local debridement and different treatments were performed on the wounds. Three weeks after injury, the wounds were covered by necrotic eschar, without exudate and dissolution reaction. Excisional debridement down to the fat layer was performed. Wounds were then dressed and covered with elasticated jackets to prevent animal-initiated damage. Preemptive antibiotics and analeptic Lu Xingning were administered i.v., then the animals were transferred to individual cages, and monitored closely for adverse outcomes during their post-procedure recovery. Post-surgical pain was managed with oral analgesia.\nIn order to verify the therapeutic effect of the composition of this application on burn wounds, the composition of Example 3 of this application, recombinant human epidermal growth factor rhEGF (5000 IU/mL, 15 mL, Shenzhen Watsin Genetech Ltd.) and physiological saline were used respectively to treat the full-thickness burn wounds of the pigs.\nThe wounds were photographed and measured at day 7, 14, 21, 28 after different treatments. It can be seen from FIG. 2 that the new granulation tissue of the wound is fresh and rosy without exudation. […]"}, "[2]": {"tested_on": "healed epidermis (proliferative layer and differentiated layer)", "experiment": "Histologic epidermal thickness of healed porcine burn wounds", "experimental": "as §1\nThe epidermis partitions into two layers: a proliferative layer and a differentiated layer."}},
  "note": "“And” between values parts separate entries of the source, which are not always exact repeats. Equal values may be shown once.",
  "data": [
    {"substance": "recombinant human epidermal growth factor [rhEGF]", "values": [
      {"measurement": "IOD (CK10) (X +/− S)", "setting": "CK10", "result": 395254.15},
      {"measurement": "IOD (P63) (X +/− S)", "setting": "P63", "result": 21929.27},
      {"measurement": "wound healing, gross appearance", "setting": "[1]; FIG. 2, versus saline group", "result": "heal faster than those of the saline group"},
      {"measurement": "residual wound area", "setting": "[1]; FIG. 3, compared to the saline group, p<0.05", "result": "obviously reduced wound area at day 28"},
      {"measurement": "wound healing rate", "setting": "[1]; FIG. 4, compared to the saline group, p<0.05", "result": "obviously improved the wound healing rate at day 7, 14, 21"},
      {"measurement": "Wound healing time (days, X +/− S)", "setting": "[1]; Test Example 1, time to complete epithelialization", "result": "23.56±4.85 days and 23.56 ± 4.85^2 days"},
      {"measurement": "Wound healing time (days, X +/− S)", "setting": "[1]; Test Example 3", "result": "23.56 ± 4.85^2 days"},
      {"measurement": "Thickness of differentiated layer (X +/− S)", "setting": "[2]", "result": 246.20, "unit": "μm"},
      {"measurement": "Thickness of proliferative layer (X +/− S)", "setting": "[2]", "result": 35.92, "unit": "μm"}
    ]}
  ]
}
